Experimental data reported in US20070238184A1, “Amyloid beta protein channel structure and uses thereof in identifying potential drug molecules for neurodegenerative diseases” (The Regents of the University of California, priority 2005, published 2007).
No end group written: not given here.

Key:
[1] = IV curve conductance across lipid bilayer suspended over silicon chip nanopore; settings: 0.2 mg/ml, 135 mM KCl, bilayer only 0.025 nS
Description: In order to study the sealing effect of the bilayer over the nanopores in the chip, lipid vesicles were deposited over to chips. After 30 minutes for a bilayer to form from vesicular fusion, the excess unadsorbed lipids and vesicles were rinsed away from the surface. Bulk electrical conductance across the supported nanopore chip and the overlying adsorbed lipid bilayer was measured using a drop of 135 mM KCl solution on top of the chip in which the AFM tip holder assembly was submerged and 135 mM KCl under the nitride membrane. The IV curve measured was near flat and indicates a conductance across the bilayer of 0.025 nS. To check for the possibility of using the nanopore chip to measure ion channel conductance, Gramicidin (a known ion channel forming peptide) was added to the solution at a concentration of 0.2 mg/ml. The effect of Gramicidin on conductance is shown in FIG. 18, while applying a 1V bias to the bottom electrode under the silicon nitride membrane.
For all samples, nano pore membranes were mounted on plastic liquid cells to exchange fluid above or below the membrane. IV curves were obtained in 135 mM KCl solution. Current was measured using the conductive AFM setup with the cantilevered tip holder as an electrode on the top and a reference electrode under the pore-chip (FIG. 20). In absence of an insulating coat, when buffer was present on both sides of the chip, current is measured through the complete tip holder clip. To image current only through the AFM tip apex, conductance was measured with 135 mM KCl solution only under the pore chip and a flow of humid air was maintained over the top surface. This set up also ensured that, by allowing only a local water meniscus between tip and the sample, only the local conductance through each pore was measured.
AFM was also used to image pores after deposition of lipid vesicles (DOPC) prepared by previously described method (Lin et al. (1999) Biochemistry, 38: 11189-11196). Briefly, vesicles were formed by drying 1 mg of DOPC lipid in a glass tube, kept in a desiccator overnight, and rehydrated in buffer with occasional sonication. For vesicle deposition a droplet (50 micro liter, 1 mg/ml) of vesicles was placed on the pore chip, allowed to adsorb for 30 minutes, and rinsed with buffer. After bilayer deposition and before IV measurements, ionic strength was brought back to 135 mM KCl both on top as well as below the pore chip to keep the bilayer hydrated properly, and current was measured through the tip holder. Once a proper seal was achieved by the bilayer, Gramicidin, an ion channel forming peptide (dissolved in milliQ water with 135 mM KCl), was added to the buffer solution, and the current was measured as a function of time while gramicidin interacted with the bilayer.

[2] = Single-channel current recording in planar phospholipid bilayer membranes; settings: voltage clamp, peptide added to one side, pH 7.4
Description: Planar phospholipid bilayer membranes were formed as described by Mirzabekov et al. (1999) Meth. Enzymol. 294: 61-74. A bubble of lipid dissolved in heptane was placed at the end of a small (100-300 μm) Teflon tube. Silver/silver chloride electrodes connected the aqueous components bounding the membrane to a voltage clamp. Ion-channel currents through the membrane were recorded by an Axopatch amplifier (Axon Instruments, Sunnyvale, Calif.). Data were filtered at 1 kHz and stored on VHS tape. Membrane capacitance and resistance were monitored continuously to ensure the formation and stability of reproducible membranes and the proper membrane thickness. […] Peptide samples were introduced by perfusing the aqueous solution bounding one side of the membrane.

[3] = target: T1, channels formed by the 42-residue AbP1-42 (Homo sapiens, UniProt P05067); assay: Liposomes reconstituted with AbP1-42 channels, channel block; assay type: biochemical
T1 construct: the channels formed by the 42-residue AbP1-42
T1 sequence (P05067 672-713 limits assumed): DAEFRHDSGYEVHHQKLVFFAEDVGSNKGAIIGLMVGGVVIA
Text: (§1) In certain embodiments binding of test agents can be detected by detecting alterations (e.g., decrease) of ion (e.g., Ca^2+) uptake by a cell, oocytes, or liposome in the presence of the test agent(s)-uptake in to the liposomes. This can readily be detected using for example a radio-isotope (e.g., 45Ca^2+) or a calcium sensitive dye (e.g., arsenazo III (AIII), Fura-2, Fluo-3, Fluo-4, Calcium green, etc.).
(§2) Using liposomes reconstituted with AbP channels in the membrane, one can screen for compounds that block AbP channels.

[4] = target: T2, channels formed by the 40 residue AbP1-40 (Homo sapiens, UniProt P05067); assay: 45Ca2+ uptake into liposomes reconstituted with AbP1-40 channels; assay type: biochemical
T2 construct: the channels formed by the 40 residue AbP1-40
T2 sequence (P05067 672-711 limits assumed): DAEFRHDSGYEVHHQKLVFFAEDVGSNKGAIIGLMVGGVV
Text: as §1, §2

AbP ion channels [5] = assay: AbP-induced toxicity in cultured cells; assay type: cell-based; settings: blocking Ca2+ influx through AbP ion channels
AbP ion channels [6] = assay: Ca2+ influx through AbP ion channels incorporated into unilaminar liposomes; assay type: biochemical, human
Text: Consistent with these discoveries, we have shown that AbP ion channels mediate Ca^2+ influx when incorporated into unilaminar liposomes, and the Ca^2+ influx was blocked by Zn^2+ and an anti-AbP antibody.

Compound: Gramicidin
- conductance after addition of Gramicidin ([1]; 10 seconds after addition): 0.25 nS
- conductance after addition of Gramicidin ([1]; 2 minutes after addition): 0.5 nS
- conductance after addition of Gramicidin ([1]; 4 minutes after addition): 1 nS
- conductance after addition of Gramicidin ([1]; 4 minutes after addition, listed as gramicidin): roughly 1 nS

Compound: amyloid-β(1-40) [Aβ(1-40)]
- induction of single-channel ion currents / conductances [2]: Current jumps corresponding to the opening or closing of individual ion channels can be observed

Compound: islet amyloid polypeptide (KCNTATCATQRLANFLVHSSNNFGAILSSTNVGSNTY; not fully specified (C-terminus, bridges); cysteine pairing not given here; UniProt P10997 34-70, looked up) [Amylin, amyloid peptide synthesized by N-t-butyloxycarbonyl chemistry]
- induction of single-channel ion currents / conductances [2]: Current jumps corresponding to the opening or closing of individual ion channels can be observed

Compound: NC(CO)(CO)CO [Tris]
- block of AbP1-42 channels [3]: blocked

Compound: NAC: NAC (α-synuclein 60-95)
- induction of single-channel ion currents / conductances [2]: Current jumps corresponding to the opening or closing of individual ion channels can be observed

Compound: [Zn+2] [Zn^2+]
- block of AbP1-40 channels and inhibition of 45Ca2+ uptake into the liposomes [4]: blocks the channels
- block of AbP1-42 channels [3]: blocked
- effect on AbP-induced toxicity (AbP ion channels [5]): inhibited AbP-induced toxicity
- block of Ca2+ influx mediated by AbP ion channels (AbP ion channels [6]): blocked
